Data taken from patent US20230190902A1, “IDENTIFICATION OF HLA-RESTRICTED PRAME PEPTIDE EPITOPES, PRAME-SPECIFIC T CELLS SUITABLE FOR "OFF-THE-SHELF" TREATMENT OF CANCER EXPRESSING PRAME” (Children's National Medical Center, priority 2020, published 2023).
Entries after “also recorded” stand apart in the source; their conditions may differ.

Legend:
CD4+ T-cells = assay: Intracellular IFN-γ and TNF-α cytokine staining, CD4+ T-cells; assay type: cell-based, human; settings: 6 h stimulation, 200 ng/peptide/well
Method: (§1) T-cells were stimulated for 6 h with PRAME PepMix or individual PRAME peptides (200 ng/peptide/well) in the presence of anti-CD28 and CD49d antibodies (RD Biosciences, San Jose, Calif., USA) and Brefeldin A (Golgiplug, BD Biosciences). Controls (unstimulated T-cells, actin, SEE) were included in each experiment. Intracellular IFN-γ (BioLegend, San Diego, Calif.) and TNF-α (Miltenyi Biotec, Bergisch Gladbach, Germany) staining were performed on fixed and permeabilized cells (Cytofix/Cytoperm, BD Biosciences). Data was acquired with a CytoFLEX cytometer (Beckman Coulter, Brea, Calif.), and analyzed using FlowJo Flow Cytometry software (FlowJo LLC, Ashland, Oreg.).
(§2) HLA restriction of these peptides was evaluated with intracellular IFN-γ and TNF-α cytokine staining.

CD8+ T-cells [1] = assay: Intracellular IFN-γ and TNF-α cytokine staining, CD8+ T-cells; assay type: cell-based, human; settings: 6 h stimulation, 200 ng/peptide/well
Method: as §1, §2

PRAME-specific T-cells = assay: Epitope mapping by IFN-γ ELISpot (peptide mini-pools and single 15-mer peptides); assay type: cell-based, human; settings: 10 μg/well
Method: (§3) PRAME Peptides. The PRAME peptide library consisting of 125 15-mer peptides overlapping by 11 amino acids and spanning the entire sequence of PRAME protein was designed to identify HLA class 1 and HLA class H-restricted epitopes (A&A Labs, San Diego, Calif.) 23 peptide pools comprising 10-12 peptides were prepared so that each 15-mer peptide was included in only two pools (FIGS. 7A and 7B). To determine minimal PRAME epitopes, additional 9-mer peptides overlapping by 8 amino acids spanning immunogenic 15-mer peptides were obtained from A&A Labs, San Diego, Calif. All peptides were reconstituted at 10 μg/μl in DMSO and stored at −80°C. until further use.
Epitope mapping. T-cell response to pools of peptide libraries and individual PRAME peptides were determined. by IFN-γ ELISpot assay. ELISpot assay was performed as previously described. 1×10^5 T-cells/well were plated alone, with actin (negative control), SEB (positive control), each peptide pool (1μg/well) and individual peptide (10 μg/well). IFN-γ spot-forming cells (SFC) were enumerated by Zellnet Consulting (Fort Lee, N.J.).
Responses that were at least 10 SFC/1×10^5 T-cells or greater than two-fold the background level of nonstimulated T-cells or T-cells stimulated with actin were considered positive responses.
In order to map the class 1-restricted responses, a mapping grid consisting of 23 mini-pools comprising 125 individual 15-mer peptides spanning the entire PRAME protein sequence to identify PRAME epitopes eliciting a response by ex-vivo expanded T-cells was used (FIG. 7A). IFN-γ production by PRAME- sensitized T-cells in response to stimulation with mini-pools was measured by ELISpot assay.
T-cell responses to single 15-mer peptides selected from the grid and their neighboring peptides were determined by IFN-γ ELISpot assay (FIG. 3B).

CD8+ T-cells [2] = assay: Minimal 9-mer epitope determination by IFN-γ ELISpot; assay type: cell-based, human; settings: 9-mers overlapping by 8 amino acids
Method: as §3
(§4) Minimal epitopes recognized by HLA I-restricted cell lines were determined by IFN-γ ELISpot assay. To confirm the restricted HLA allele, anti-human HLA class 1 B35 antigen monoclonal antibody was used in the ELISpot plate (MyBioSource, San Diego, Calif.).
The minimal 9-mer epitopes overlapping by 8 amino acids spanning the 15-mer peptides were determined by IFN-γ ELISpot.

HLA-B*35 = target: T1, HLA-B*35 (Homo sapiens, UniProt P01889, A329T/A93T/A95T/C349S/D201E/D98Y/E176V/E187L/E204Q/E69T/I218V/K202T/L119I/Q94N/R155S/R180L/S121R/S35A/S48A/T118I/V127L/V306I/V36M/Y140F/Y91F); assay: IFN-γ ELISpot with anti-HLA-B*35 antibody (HLA restriction); assay type: cell-based; settings: versus T-cell product alone (FIG. 3G)
T1 construct: PRAME-specific T-cells were expanded from PBMCs obtained from twelve healthy donors; endogenous in cells; host or cells: ex vivo expanded PRAME-specific T-cell product from healthy donor PBMCs
Method: as §4
To confirm the HLA-B*35 restriction of FPEPEAAQP (SEQ ID NO: 6) further testing was performed using an anti-[…] antibody.

specificity of T-cell product with anti-HLA-B*35 antibody (HLA-B*35)	specificity of T-cell product with anti-HLA-B*35 antibody (HLA-B*35; listed as FPEPEAAQPM)	Sequence	IFN-γ and TNF-α release by CD4+ T-cells (CD4+ T-cells)	IFN-γ and TNF-α release by CD8+ T-cells (CD8+ T-cells [1])	T-cell response to single 15-mer PRAME peptide, IFN-γ ELISpot (PRAME-specific T-cells; T-cell product of FIG. 3B/3C)	T-cell response to single 15-mer PRAME peptide, IFN-γ ELISpot (PRAME-specific T-cells; T-cell product of FIG. 4B/4C)	IFN-γ secretion upon stimulation with 9-mer (minimal epitope) (CD8+ T-cells [2])
–	–	ASIYSFPEPEAAQPM (ASLYSFPEPEAAQPM) [compound 36]	no specificity	released IFN-γ and TNF-α; also recorded: HLA-I-restricted	immunogenic	–	–
–	–	EEQYIAQFTSQFLSL [compound 71]	released IFN-γ and TNF-α; also recorded: release of IFN-γ and TNF-α	no specificity	–	recognition	–
–	–	EKVKRKKNVLRLCCK [compound 50]	released IFN-γ and TNF-α; also recorded: release of IFN-γ and TNF-α	no specificity	–	recognition	–
–	–	EQPFIPVEVINDLFL [compound 43]	no specificity	released IFN-γ and TNF-α; also recorded: HLA-I-restricted	immunogenic	–	–
decreased specificity	confirms HLA restriction	FPEPEAAQP	–	–	–	–	secreted IFN-γ; also recorded: minimal 9-mer peptides
–	–	IPVEVINDLFLKEGA [compound 44]	no specificity	released IFN-γ and TNF-α; also recorded: HLA-I-restricted	immunogenic	–	–
–	–	RLVELAGQSLLKDEA [compound 7]	activated	activated	–	–	–
–	–	SFPEPEAAQPMTKKR [compound 37]	no specificity	released IFN-γ and TNF-α; also recorded: HLA-I-restricted	immunogenic	–	–
–	–	SPEKEEQYIAQFTSQ [compound 70]	–	–	–	recognition	–
–	–	VEVLVDLFL	–	–	–	–	secreted IFN-γ; also recorded: minimal 9-mer peptides
